Biological target: T1, T1R2/T1R3 taste receptor (Homo sapiens, UniProt Q7RTX0+Q8TE23)
T1 sequence (Q8TE23 20-839): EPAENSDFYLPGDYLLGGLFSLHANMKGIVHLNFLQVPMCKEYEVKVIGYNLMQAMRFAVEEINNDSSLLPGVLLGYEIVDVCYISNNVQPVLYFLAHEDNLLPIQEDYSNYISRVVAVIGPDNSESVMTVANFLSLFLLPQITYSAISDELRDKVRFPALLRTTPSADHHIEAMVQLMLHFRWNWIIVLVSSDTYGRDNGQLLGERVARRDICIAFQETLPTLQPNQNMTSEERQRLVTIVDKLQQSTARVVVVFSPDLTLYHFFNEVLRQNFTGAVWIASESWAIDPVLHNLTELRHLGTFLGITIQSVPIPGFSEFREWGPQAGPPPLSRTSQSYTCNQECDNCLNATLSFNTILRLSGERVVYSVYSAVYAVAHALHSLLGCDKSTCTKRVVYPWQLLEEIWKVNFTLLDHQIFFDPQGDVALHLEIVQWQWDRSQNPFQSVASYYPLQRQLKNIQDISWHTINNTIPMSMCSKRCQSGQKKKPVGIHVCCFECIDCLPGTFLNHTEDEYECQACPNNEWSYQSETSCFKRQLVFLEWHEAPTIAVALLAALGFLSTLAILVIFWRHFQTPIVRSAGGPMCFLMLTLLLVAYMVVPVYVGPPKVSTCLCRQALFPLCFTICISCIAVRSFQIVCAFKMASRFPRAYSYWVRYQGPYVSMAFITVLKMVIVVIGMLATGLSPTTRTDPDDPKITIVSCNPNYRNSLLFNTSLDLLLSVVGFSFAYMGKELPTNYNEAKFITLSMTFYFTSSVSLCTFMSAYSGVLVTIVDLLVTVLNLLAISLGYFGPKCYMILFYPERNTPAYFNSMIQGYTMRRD
T1 sequence (Q7RTX0 21-852): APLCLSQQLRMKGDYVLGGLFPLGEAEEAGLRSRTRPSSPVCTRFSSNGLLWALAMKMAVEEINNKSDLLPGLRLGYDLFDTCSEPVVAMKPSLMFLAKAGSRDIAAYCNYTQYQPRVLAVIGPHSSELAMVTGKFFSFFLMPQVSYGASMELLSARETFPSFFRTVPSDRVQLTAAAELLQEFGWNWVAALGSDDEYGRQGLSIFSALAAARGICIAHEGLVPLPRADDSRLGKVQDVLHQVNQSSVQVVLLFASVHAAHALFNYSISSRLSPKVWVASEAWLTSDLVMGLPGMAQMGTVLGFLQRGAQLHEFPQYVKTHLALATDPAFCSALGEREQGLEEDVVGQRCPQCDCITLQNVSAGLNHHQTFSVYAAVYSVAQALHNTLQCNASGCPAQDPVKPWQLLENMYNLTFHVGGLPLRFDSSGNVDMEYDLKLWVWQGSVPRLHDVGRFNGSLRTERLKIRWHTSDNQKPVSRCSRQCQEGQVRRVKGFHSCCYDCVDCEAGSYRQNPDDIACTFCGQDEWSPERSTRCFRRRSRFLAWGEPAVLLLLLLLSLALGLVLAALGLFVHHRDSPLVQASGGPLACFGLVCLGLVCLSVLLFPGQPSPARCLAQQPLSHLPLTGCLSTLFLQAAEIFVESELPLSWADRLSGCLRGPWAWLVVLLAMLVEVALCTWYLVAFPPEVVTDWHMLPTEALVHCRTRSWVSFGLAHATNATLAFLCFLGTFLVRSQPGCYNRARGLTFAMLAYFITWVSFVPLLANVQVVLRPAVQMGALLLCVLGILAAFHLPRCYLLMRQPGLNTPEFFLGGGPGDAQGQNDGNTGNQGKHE
Assay: Receptor-based assay: sweetener EC50 enhancement ratio with and without test compound
Type: cell-based
Details: for Sucrose Enhancement EC50 Ratio: sweetener sucrose; for Sucralose Enhancement EC50 Ratio: sweetener sucralose
Method: Potencies (EC50 values) for the sweeteners sucrose, sucralose, and fructose were measured against the T1R2/T1R3 taste receptor. EC50 was determined using the sweetener alone and in the presence of 1 μM, 3 μM, 10 μM, or 50 μM of test compound. EC50 ratios were calculated by the ratio of potency with and without the test compound. An “A” value indicates an enhancement ratio of greater than 1 and less than 10. A “B” value indicates an enhancement ratio from 10 to 20. A “C” value indicates an enhancement ratio greater than 20.

| SMILES | Sucrose Enhancement EC50 Ratio (1 μM test compound) | Sucrose Enhancement EC50 Ratio (3 μM test compound) | Sucrose Enhancement EC50 Ratio (10 μM test compound) | Sucralose Enhancement EC50 Ratio (3 μM test compound) | Sucralose Enhancement EC50 Ratio (10 μM test compound) | Fructose Enhancement EC50 Ratio (50 μM test compound, sweetener fructose) |
| --- | --- | --- | --- | --- | --- | --- |
| Cc1nc2cccc(O[C@H]3CC[C@H](NC(=O)CO[C@H]4CC[C@H](C)CC4)CC3)c2c(N)c1C(=O)O [Compound 312] | A (an enhancement ratio of greater than 1 and less than 10) | A (an enhancement ratio of greater than 1 and less than 10) | B (an enhancement ratio from 10 to 20) |  |  |  |
| Cc1nc2cccc(O[C@H]3CC[C@H](NC(=O)COCC4CC4)CC3)c2c(N)c1C(=O)O [Compound 313] | A (an enhancement ratio of greater than 1 and less than 10) | C (an enhancement ratio greater than 20) | A (an enhancement ratio of greater than 1 and less than 10) |  |  |  |
| Cc1nc2cccc(O[C@H]3CC[C@H](NC(=O)COC4CCOCC4)CC3)c2c(N)c1C(=O)O [Compound 314] | B (an enhancement ratio from 10 to 20) |  |  | B (an enhancement ratio from 10 to 20) |  |  |
| CCOC(C)C(=O)N[C@H]1CC[C@H](Oc2cccc3nc(C)c(C(=O)O)c(N)c23)CC1 (some centres unmarked) [Compound 315] | B (an enhancement ratio from 10 to 20) | B (an enhancement ratio from 10 to 20) | C (an enhancement ratio greater than 20) |  |  |  |
| CCOC(C)(C)C(=O)N[C@H]1CC[C@H](Oc2cccc3nc(C)c(C(=O)O)c(N)c23)CC1 [Compound 316] | A (an enhancement ratio of greater than 1 and less than 10) | A (an enhancement ratio of greater than 1 and less than 10) | B (an enhancement ratio from 10 to 20) |  |  |  |
| COCCC(=O)N[C@H]1CC[C@H](Oc2cccc3nc(C)c(C(=O)O)c(N)c23)CC1 [Compound 317] | A (an enhancement ratio of greater than 1 and less than 10) | A (an enhancement ratio of greater than 1 and less than 10) | B (an enhancement ratio from 10 to 20) |  |  |  |
| CCSCC(=O)N[C@H]1CC[C@H](Oc2cccc3nc(C)c(C(=O)O)c(N)c23)CC1 [Compound 318] | A (an enhancement ratio of greater than 1 and less than 10) | A (an enhancement ratio of greater than 1 and less than 10) | B (an enhancement ratio from 10 to 20) |  | B (an enhancement ratio from 10 to 20) | A (an enhancement ratio of greater than 1 and less than 10) |
| Cc1nc2cccc(O[C@H]3CC[C@H](NC(=O)CCCC(C)C)CC3)c2c(N)c1C(=O)O [Compound 319] | A (an enhancement ratio of greater than 1 and less than 10) | A (an enhancement ratio of greater than 1 and less than 10) | A (an enhancement ratio of greater than 1 and less than 10) |  |  |  |
| Cc1nc2cccc(O[C@H]3CC[C@H](NC(=O)C4CCC4)CC3)c2c(N)c1C(=O)O [Compound 320] | A (an enhancement ratio of greater than 1 and less than 10) | B (an enhancement ratio from 10 to 20) | B (an enhancement ratio from 10 to 20) |  | B (an enhancement ratio from 10 to 20) |  |
| Cc1nc2cccc(O[C@H]3CC[C@H](NC(=O)Cc4c[nH]cn4)CC3)c2c(N)c1C(=O)O [Compound 321] | A (an enhancement ratio of greater than 1 and less than 10) | A (an enhancement ratio of greater than 1 and less than 10) |  |  |  |  |
| CCOCC(=O)N[C@H]1CC[C@H](Oc2cccc3nc(CC)c(C(=O)O)c(N)c23)CC1 [Compound 322] | A (an enhancement ratio of greater than 1 and less than 10) | A (an enhancement ratio of greater than 1 and less than 10) |  |  |  |  |
| Cc1nc2cccc(O[C@H]3CC[C@H](NC(=O)CN4CCCC4)CC3)c2c(N)c1C(=O)O [Compound 323] | A (an enhancement ratio of greater than 1 and less than 10) | A (an enhancement ratio of greater than 1 and less than 10) |  |  |  |  |
| Cc1nc2cccc(O[C@H]3CC[C@H](NC(=O)CN(C)C)CC3)c2c(N)c1C(=O)O [Compound 324] | A (an enhancement ratio of greater than 1 and less than 10) | A (an enhancement ratio of greater than 1 and less than 10) |  | A (an enhancement ratio of greater than 1 and less than 10) |  |  |
| Cc1nc2cccc(O[C@H]3CC[C@H](NC(=O)Cn4ccnc4)CC3)c2c(N)c1C(=O)O [Compound 325] | A (an enhancement ratio of greater than 1 and less than 10) | B (an enhancement ratio from 10 to 20) |  | A (an enhancement ratio of greater than 1 and less than 10) |  |  |
| Cc1nc2cccc(O[C@H]3CC[C@H](NC(=O)COCC4CCC4)CC3)c2c(N)c1C(=O)O [Compound 326] | B (an enhancement ratio from 10 to 20) |  |  |  |  |  |
| Cc1nc2cccc(O[C@H]3CC[C@H](NC(=O)COc4ccccc4)CC3)c2c(N)c1C(=O)O [Compound 327] | A (an enhancement ratio of greater than 1 and less than 10) |  |  |  |  |  |
| Cc1nc2cccc(O[C@H]3CC[C@H](NC(=O)CO[C@@H]4C[C@H](C)CC[C@H]4C(C)C)CC3)c2c(N)c1C(=O)O [Compound 328] | A (an enhancement ratio of greater than 1 and less than 10) | A (an enhancement ratio of greater than 1 and less than 10) | C (an enhancement ratio greater than 20) |  |  |  |
| Cc1nc2cccc(O[C@H]3CC[C@H](NC(=O)COCCOC(C)C)CC3)c2c(N)c1C(=O)O [Compound 329] | A (an enhancement ratio of greater than 1 and less than 10) | B (an enhancement ratio from 10 to 20) |  | A (an enhancement ratio of greater than 1 and less than 10) |  |  |
| Cc1cnn(CC(=O)N[C@H]2CC[C@H](Oc3cccc4nc(C)c(C(=O)O)c(N)c34)CC2)c1 [Compound 330] | A (an enhancement ratio of greater than 1 and less than 10) | A (an enhancement ratio of greater than 1 and less than 10) | A (an enhancement ratio of greater than 1 and less than 10) |  |  |  |
| CCC(CC)COCC(=O)N[C@H]1CC[C@H](Oc2cccc3nc(C)c(C(=O)O)c(N)c23)CC1 [Compound 331] | A (an enhancement ratio of greater than 1 and less than 10) | A (an enhancement ratio of greater than 1 and less than 10) | C (an enhancement ratio greater than 20) |  |  |  |
| CCOCCOCC(=O)N[C@H]1CC[C@H](Oc2cccc3nc(C)c(C(=O)O)c(N)c23)CC1 [Compound 332] | A (an enhancement ratio of greater than 1 and less than 10) | B (an enhancement ratio from 10 to 20) |  |  |  |  |
| Cc1nc2cccc(O[C@H]3CC[C@H](NC(=O)COCCOCc4ccccc4)CC3)c2c(N)c1C(=O)O [Compound 333] | A (an enhancement ratio of greater than 1 and less than 10) | B (an enhancement ratio from 10 to 20) |  |  |  |  |

Reference: patent publication US11339128B2 (Firmenich Incorporated, priority 2014, dated 2022)
